Experimental data published in publication PMC12627007, “HIV nucleocapsid proteins as targets for novel 1,2-benzisothiazol-3(2H)-one benzenesulfonamides: synthesis and antiretroviral activity” (Frontiers in Microbiology, 2025).

Tests used:
Format in all cases: cell-based
[1] = test system: HIV-1 SAQR (L10F, G48V, L90M); test: Inhibition of virus-induced cytopathogenicity in MT-4 cells, PRI-resistant mutant SAQR; details: for EC50: Human immunodeficiency virus 1, MT4, read-out: EC50 SAQR; for Selectivity Index (SI = CC50/EC50) SAQR: in round brackets
Protocol: (§1) HIV-1IIIB and HIV-2 CBL-20 strains were obtained from the supernatants of persistently infected H9/IIIB and CEM cells, respectively. HIV-1 and HIV-2 stock solutions had titres of 4.5 × 10^7 and 1.4 × 10^6 50% cell culture infectious doses (CCID50)/ml, respectively. […] The K103R + V179D + P225H mutant (EFVR) was derived from an IIIB strain passaged in MT-4 cells in the presence of Efavirenz (up to 2 μM). N119, A17 and EFV^R stock solutions had titres of 1.2 × 10^8, 2.1 × 10^7, and 4.0 × 10^7 CCID50/ml, respectively.
(§2) The activity of the test compounds against the replication of HIV-1 wt and mutant strains (N119, A17, EFV^R, AZT^R, MDR, SAQ^R) and HIV-2 wt in acutely infected cells was based on the inhibition of virus-induced cytopathogenicity in MT-4 and C8166 cells, respectively. Briefly, 50 μL of culture medium containing 1 × 10^4 cells was added to each well of flat-bottom microtitre trays containing 50 μL of culture medium with or without different serial concentrations of test compounds. Then, 20 μL of an HIV suspension (containing the appropriate amount of CCID50 required to cause complete cytopathogenicity on day 4, final multiplicity of infection [m.o.i.] 0.01) was added.

[2] = test system: HIV-1 A17 (K103N + Y181C); test: Inhibition of virus-induced cytopathogenicity in MT-4 cells, NNRTI-resistant mutant A17; details: for EC50: Human immunodeficiency virus 1, MT4, read-out: EC50 A17; for Selectivity Index (SI = CC50/EC50) A17: in round brackets
Protocol: as §1, §2

[3] = test system: HIV-1 AZTR (67N, 70R, 215F, 219Q); test: Inhibition of virus-induced cytopathogenicity in MT-4 cells, NRTI-resistant mutant AZTR; details: for EC50: Human immunodeficiency virus 1, MT4, read-out: EC50 AZTR; for Selectivity Index (SI = CC50/EC50) AZTR: in round brackets
Protocol: as §1, §2

[4] = test system: HIV-1 MDR (74V, 41L, 106A, 215Y); test: Inhibition of virus-induced cytopathogenicity in MT-4 cells, NRTI-resistant mutant MDR; details: for EC50: Human immunodeficiency virus 1, MT4, read-out: EC50 MDR; for Selectivity Index (SI = CC50/EC50) MDR: in round brackets
Protocol: as §1, §2

HIV-1 N119 (Y181C) = test: Inhibition of virus-induced cytopathogenicity in MT-4 cells, NNRTI-resistant mutant N119; details: for EC50: Human immunodeficiency virus 1, MT4, read-out: EC50 N119; for Selectivity Index (SI = CC50/EC50) N119: in round brackets
Protocol: as §1, §2

[5] = test system: HIV-1 EFVR (K103R + V179D + P225H); test: Inhibition of virus-induced cytopathogenicity in MT-4 cells, NNRTI-resistant mutant EFVR; details: for EC50: Human immunodeficiency virus 1, MT4, read-out: EC50 EFVR; for Selectivity Index (SI = CC50/EC50) EFVR: in round brackets
Protocol: as §1, §2

HIV-1 IIIB strain = test: microbe, parasite or virus in culture; details: for EC50: Human immunodeficiency virus 1, IIIB, MT4, read-out: EC50 HIV-1; for Selectivity Index (SI = CC50/EC50) HIV-1: IIIB strain, in round brackets
Protocol: as §1, §2

[6] = Cytotoxicity in mock-infected MT-4 cells (MTT method); details: human
Protocol: as §2, with “added. After incubation at 37 °C, cell viability was determined using the […] (MTT) method ([Pauwels et al., 1988]). The cytotoxicity of the test compounds was evaluated in parallel with their antiviral activity through the viability of mock-infected, treated cells, as monitored by the MTT method and described elsewhere ([Morellet et al., 1994]).” for “added.”

| SMILES | EC50 [1] [µM] | Selectivity Index (SI = CC50/EC50) SAQR [1] | EC50 [2] [µM] | Selectivity Index (SI = CC50/EC50) A17 [2] | EC50 [3] [µM] | Selectivity Index (SI = CC50/EC50) AZTR [3] | EC50 [4] [µM] | Selectivity Index (SI = CC50/EC50) MDR [4] | EC50 (HIV-1 N119 (Y181C)) [µM] | Selectivity Index (SI = CC50/EC50) N119 (HIV-1 N119 (Y181C)) | EC50 [5] [µM] | Selectivity Index (SI = CC50/EC50) EFVR [5] | EC50 (HIV-1 IIIB strain) [µM] | Selectivity Index (SI = CC50/EC50) HIV-1 (HIV-1 IIIB strain) | CC50 at 4 days [6] [µM] | CC50 at 4 days ([6]; MT-4, MTT method) [µM] |
| --- | --- | --- | --- | --- | --- | --- | --- | --- | --- | --- | --- | --- | --- | --- | --- | --- |
| O=c1c2ccccc2sn1NS(=O)(=O)c1ccc(Cl)cc1 [Compound 13, 4-Chloro-N-(3-oxo-1,2-benzisothiazol-2(3H)-yl)benzenesulfonamide] | 8 ± 2 | 4 | 8 ± 1.4 | 4 | 7 ± 1 | 4 | 7 ± 2 | 4 | 6 ± 0.9 | 5 | 3 ± 1 | 10 | 11 ± 4 | 3 | 33 ± 0.1 |  |
| O=c1c2ccccc2sn1N(S(=O)(=O)c1ccccc1)S(=O)(=O)c1ccccc1 [Compound 20, N-(3-oxo-1,2-benzisothiazol-2(3H)-yl)-N-(phenylsulfonyl)benzenesulfonamide] | 25 ± 3 | > 4 | 25 ± 2 | > 4 | 20 ± 2 | > 5 | 19 ± 1 | > 5 | 23 ± 1 |  | 22 ± 1 | > 4 | 22 ± 3.5 |  | > 100 |  |
| O=c1c2ccccc2sn1NS(=O)(=O)c1ccc(F)cc1 [Compound 11, 4-Fluoro-N-(3-oxo-1,2-benzisothiazol-2(3H)-yl)benzenesulfonamide] | 4 ± 0.7 | 12 | 5 ± 0.2 | 10 | 5 ± 0.5 | 10 | 6 ± 0.5 | 8 | 5 ± 0.5 | 10 | 2 ± 0.7 | 25 | 5 ± 2 | 10 | 50 ± 4 |  |
| Cc1ccc(S(=O)(=O)N(n2sc3ccccc3c2=O)S(=O)(=O)c2ccc(C)cc2)cc1 [Compound 21, 4-Methyl-N-[(4-methylphenyl)sulfonyl]-N-(3-oxo-1,2-benzisothiazol-2(3H)-yl)benzenesulfonamide] | 63 |  | 58 |  | 70 |  | 63 |  | 44 |  | 70 |  | 76 |  | > 100 |  |
| O=c1c2ccccc2sn1N(S(=O)(=O)c1ccc(Cl)cc1)S(=O)(=O)c1ccc(Cl)cc1 [Compound 24, 4-Chloro-N-[(4-chlorophenyl)sulfonyl]-N-(3-oxo-1,2-benzisothiazol-2(3H)-yl)benzenesulfonamide] | 63 |  | 56 |  | 71 |  | 64 |  | 29 ± 1 |  | 65 |  | 71 ± 6 |  | > 100 |  |
| O=c1c2ccccc2sn1NS(=O)(=O)c1ccccc1Cl [Compound 12, 2-Chloro-N-(3-oxo-1,2-benzisothiazol-2(3H)-yl)benzenesulfonamide] | 9 ± 2 | 8 | 11 ± 2 | 6 | 9 ± 0.7 | 8 | 7 ± 1 | 7 | 7 ± 0.7 | 10 | 9 ± 0.5 | 8 | 13 ± 2 | 5 | 73 ± 3 |  |
| COc1ccc(S(=O)(=O)Nn2sc3ccccc3c2=O)cc1 [Compound 9, 4-Methoxy-N-(3-oxo-1,2-benzisothiazol-2(3H)-yl)benzenesulfonamide] | 7 ± 1 | 8 | 8 ± 1 | 7 | 5 ± 1 | 11 | 6 ± 0.7 | 9 | 6 ± 0.5 | 9 | 6 ± 0.7 | 9 | 8 ± 2 | 7 | 56 ± 0.1 |  |
| O=c1c2ccccc2sn1NS(=O)(=O)c1ccc(Cl)c(Cl)c1 [Compound 15, 3,4-Dichloro-N-(3-oxo-1,2-benzisothiazol-2(3H)-yl)benzenesulfonamide] | 8 ± 2 | 8 | 8 ± 2 | 8 | 6 ± 1 | 11 | 11 ± 3 | 6 | 7 ± 0.1 | 9 | 8 ± 1.5 | 8 | 15 ± 4 | 4 | 66 ± 3 |  |
| O=c1c2ccccc2sn1N(S(=O)(=O)c1ccc([N+](=O)[O-])cc1)S(=O)(=O)c1ccc([N+](=O)[O-])cc1 [Compound 22, 4-Nitro-N-[(4-nitrophenyl)sulfonyl]-N-(3-oxo-1,2-benzisothiazol-2(3H)-yl)benzenesulfonamide] | 23 | > 4 | 20 | > 5 | 24 | > 4 | 25 | > 4 | 20 | > 5 | 21 | > 4 | 21 | > 4 |  | > 100 |
